Consider nine compounds from patent publication US5468472A, “Topical process for lightening the skin or treating pigmental blemishes using a composition containing 4-thioresorcin derivatives” (L'Oreal, priority 1993, dated 1995).

The experiment relates to fungal tyrosinase. Put plainly: in vitro inhibition test of the activity of tyrosinase (dopachrome formation, 475 nm). In kind it is biochemical. The conditions noted are these: inhibitor at 50 mol % with respect to tyrosine; lowering of maximum dopachrome (OD 475 nm at plateau) vs no inhibitor; pH 6.5, 25° C. The source says:
According to this test, the amount of dopachrome formed during the chain of reactions of conversion of tyrosine to melanins is monitored by visible spectrometry at 475 nm.
The concentration of dopachrome formed with time in the presence and in the absence of the inhibitor thus measured.
The inhibitor concentrations are set at 50 mol % with respect to the concentration of tyrosine in the reaction medium.
The inhibition effect is expressed by the lowering in the maximum amount of dopachrome formed (optical density value at 475 nm read at the plateau of the curve) with respect to the amount obtained in the absence of inhibitor.
A - 0.1M Phosphate buffer, pH=6.5 (1% Tween 20)
B - 2.10^-3 M Mother solution of L-tyrosine in A
C - 10^-4 M Mother solution of L-dopa in A
D - Mother solution of fungal tyrosinase in A containing 2,400 units/ml
E - 10^-2 M Mother solution of the inhibitor in A (Solutions C and D are to be prepared on the day)
reference cell: 3 ml of A
homogenize and equilibrate at 25° C.
mix rapidly and observe the kinetics by measuring the absorbence at 475 nm as a function of time.

Regarding `CSc1ccc(O)cc1O`, the “% change in maximum dopachrome vs no inhibitor” value (“% change … vs no inhibitor” below) is on record as -90%.
Then `CCSc1ccc(O)cc1O`, with -88%.
Then `Oc1ccc(SCc2ccccc2)c(O)c1`, with -95%; and `Oc1ccc(SCCSc2ccc(O)cc2O)c(O)c1`, with -79%.
Turning to `CCCSc1ccc(O)cc1O`, the “% change … vs no inhibitor” value is given as -76%.
With `CC(C)Sc1ccc(O)cc1O` the figure was -84%; with `CCOC(=O)CSc1ccc(O)cc1O`, -94%.
With `Oc1ccc(SCCCN2CCOCC2)c(O)c1`, the “% change … vs no inhibitor” value is given as -65%.
Turning to `Oc1ccc(O)cc1` [hydroquinone, reference compound], the “% change … vs no inhibitor” value is reported as -33%.
